Measured values as given in PubChem BioAssay AID272 (DTP/NCI, 2004).
Where “and” joins values, the source holds several entries; their conditions need not be identical. Equal values may be shown once. Records with an inconclusive call do not appear.

Tested on: Lewis lung carcinoma i.m., BDF1 mice, T/C %
Experiment: NCI In Vivo Anticancer Drug Screen. Data for tumor model Lewis Lung Carcinoma (intramuscular) in B6D2F1 (BDF1) mice
Procedure, shortened: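 Mice carrying transplantable tumours received test compound. Survival or tumour size was recorded and expressed as the treated-group value (T) divided by the vehicle-treated control-group value (C).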

For CCc1nc(N)nc(N)c1-c1ccc(Cl)cc1, the T/C (endpoint: mean tumor weight, dose: 64.0 mg/kg/injection, schedule: Q01DX009 (ip), vehicle: Klucel (hydroxypropylcellulose) (HPC), higher = larger tumour) was 26 % of control, the T/C (endpoint: mean tumor weight, dose: 64.0 mg/kg/injection, schedule: Q01DX009 (sc), vehicle: Klucel (hydroxypropylcellulose) (HPC), higher = larger tumour) was 41 % of control and the T/C (endpoint: mean tumor weight, dose: 64.0 mg/kg/injection, schedule: Q04DX003 (ip), vehicle: Klucel (hydroxypropylcellulose) (HPC), higher = larger tumour) was 70 % of control and 93 % of control. The T/C (endpoint: mean tumor weight, dose: 64.0 mg/kg/injection, schedule: Q08DX002 (ip), vehicle: Klucel (hydroxypropylcellulose) (HPC), higher = larger tumour) was 72 % of control and 81 % of control, the T/C (endpoint: mean tumor weight, dose: 128.0 mg/kg/injection, schedule: Q01DX001 (ip), vehicle: Klucel (hydroxypropylcellulose) (HPC), higher = larger tumour) was 81 % of control and the T/C (endpoint: mean tumor weight, dose: 128.0 mg/kg/injection, schedule: Q01DX001 (oral), vehicle: Klucel (hydroxypropylcellulose) (HPC), higher = larger tumour) was 82 % of control. The T/C (endpoint: mean tumor weight, dose: 128.0 mg/kg/injection, schedule: Q01DX001 (sc), vehicle: Klucel (hydroxypropylcellulose) (HPC), higher = larger tumour) was 50 % of control, the T/C (endpoint: mean tumor weight, dose: 128.0 mg/kg/injection, schedule: Q04DX003 (ip), vehicle: Klucel (hydroxypropylcellulose) (HPC), higher = larger tumour) was 71 % of control and the T/C (endpoint: median survival time, dose: 2.0 mg/kg/injection, schedule: Q06HX008 (ip), vehicle: Klucel (hydroxypropylcellulose) (HPC), higher = longer survival) was 92 % of control. For the same compound, the T/C (endpoint: median survival time, dose: 4.0 mg/kg/injection, schedule: Q01DX009 (ip), vehicle: Klucel (hydroxypropylcellulose) (HPC), higher = longer survival) was 95 % of control, the T/C (endpoint: median survival time, dose: 4.0 mg/kg/injection, schedule: Q01DX009 (sc), vehicle: Klucel (hydroxypropylcellulose) (HPC), higher = longer survival) was 100 % of control and the T/C (endpoint: median survival time, dose: 4.0 mg/kg/injection, schedule: Q06HX004 (ip), vehicle: Klucel (hydroxypropylcellulose) (HPC), higher = longer survival) was 107 % of control. For the same compound, the T/C (endpoint: median survival time, dose: 4.0 mg/kg/injection, schedule: Q06HX008 (ip), vehicle: Klucel (hydroxypropylcellulose) (HPC), higher = longer survival) was 88 % of control and 104 % of control, the T/C (endpoint: median survival time, dose: 8.0 mg/kg/injection, schedule: Q01DX001 (sc), vehicle: Klucel (hydroxypropylcellulose) (HPC), higher = longer survival) was 104 % of control and the T/C (endpoint: median survival time, dose: 8.0 mg/kg/injection, schedule: Q01DX009 (ip), vehicle: Klucel (hydroxypropylcellulose) (HPC), higher = longer survival) was 104 % of control. For the same compound, the T/C (endpoint: median survival time, dose: 8.0 mg/kg/injection, schedule: Q01DX009 (oral), vehicle: Klucel (hydroxypropylcellulose) (HPC), higher = longer survival) was 104 % of control, the T/C (endpoint: median survival time, dose: 8.0 mg/kg/injection, schedule: Q04DX003 (ip), vehicle: Klucel (hydroxypropylcellulose) (HPC), higher = longer survival) was 94 % of control and the T/C (endpoint: median survival time, dose: 8.0 mg/kg/injection, schedule: Q06HX004 (ip), vehicle: Klucel (hydroxypropylcellulose) (HPC), higher = longer survival) was 109 % of control. The T/C (endpoint: median survival time, dose: 8.0 mg/kg/injection, schedule: Q06HX008 (ip), vehicle: Klucel (hydroxypropylcellulose) (HPC), higher = longer survival) was 100 % of control, the T/C (endpoint: median survival time, dose: 8.0 mg/kg/injection, schedule: Q06HX012 (ip), vehicle: Klucel (hydroxypropylcellulose) (HPC), higher = longer survival) was 107 % of control and the T/C (endpoint: median survival time, dose: 8.0 mg/kg/injection, schedule: Q08DX002 (ip), vehicle: Klucel (hydroxypropylcellulose) (HPC), higher = longer survival) was 94 % of control. The T/C (endpoint: median survival time, dose: 12.5 mg/kg/injection, schedule: Q01DX011 (ip), vehicle: steriod suspending solution, higher = longer survival) was 103 % of control, the T/C (endpoint: median survival time, dose: 16.0 mg/kg/injection, schedule: Q01DX001 (ip), vehicle: Klucel (hydroxypropylcellulose) (HPC), higher = longer survival) was 100 % of control and the T/C (endpoint: median survival time, dose: 16.0 mg/kg/injection, schedule: Q01DX001 (sc), vehicle: Klucel (hydroxypropylcellulose) (HPC), higher = longer survival) was 96 % of control. The T/C (endpoint: median survival time, dose: 16.0 mg/kg/injection, schedule: Q01DX009 (ip), vehicle: Klucel (hydroxypropylcellulose) (HPC), higher = longer survival) was 108 % of control, the T/C (endpoint: median survival time, dose: 16.0 mg/kg/injection, schedule: Q01DX009 (oral), vehicle: Klucel (hydroxypropylcellulose) (HPC), higher = longer survival) was 100 % of control and the T/C (endpoint: median survival time, dose: 16.0 mg/kg/injection, schedule: Q01DX009 (sc), vehicle: Klucel (hydroxypropylcellulose) (HPC), higher = longer survival) was 109 % of control. The T/C (endpoint: median survival time, dose: 16.0 mg/kg/injection, schedule: Q04DX003 (ip), vehicle: Klucel (hydroxypropylcellulose) (HPC), higher = longer survival) was 92 % of control and 100 % of control, the T/C (endpoint: median survival time, dose: 16.0 mg/kg/injection, schedule: Q06HX008 (ip), vehicle: Klucel (hydroxypropylcellulose) (HPC), higher = longer survival) was 98 % of control and the T/C (endpoint: median survival time, dose: 32.0 mg/kg/injection, schedule: Q01DX001 (ip), vehicle: Klucel (hydroxypropylcellulose) (HPC), higher = longer survival) was 102 % of control. For the same compound, the T/C (endpoint: median survival time, dose: 32.0 mg/kg/injection, schedule: Q01DX001 (oral), vehicle: Klucel (hydroxypropylcellulose) (HPC), higher = longer survival) was 104 % of control, the T/C (endpoint: median survival time, dose: 32.0 mg/kg/injection, schedule: Q01DX001 (sc), vehicle: Klucel (hydroxypropylcellulose) (HPC), higher = longer survival) was 104 % of control and the T/C (endpoint: median survival time, dose: 32.0 mg/kg/injection, schedule: Q04DX003 (ip), vehicle: Klucel (hydroxypropylcellulose) (HPC), higher = longer survival) was 92 % of control. For the same compound, the T/C (endpoint: median survival time, dose: 32.0 mg/kg/injection, schedule: Q08DX002 (ip), vehicle: Klucel (hydroxypropylcellulose) (HPC), higher = longer survival) was 86 % of control and 102 % of control, the T/C (endpoint: median survival time, dose: 64.0 mg/kg/injection, schedule: Q01DX001 (oral), vehicle: Klucel (hydroxypropylcellulose) (HPC), higher = longer survival) was 104 % of control and the T/C (endpoint: median survival time, dose: 64.0 mg/kg/injection, schedule: Q01DX001 (sc), vehicle: Klucel (hydroxypropylcellulose) (HPC), higher = longer survival) was 90 % of control and 100 % of control. The T/C (endpoint: median survival time, dose: 64.0 mg/kg/injection, schedule: Q01DX009 (sc), vehicle: Klucel (hydroxypropylcellulose) (HPC), higher = longer survival) was 104 % of control, the T/C (endpoint: median survival time, dose: 64.0 mg/kg/injection, schedule: Q04DX003 (ip), vehicle: Klucel (hydroxypropylcellulose) (HPC), higher = longer survival) was 96 % of control and 109 % of control and the T/C (endpoint: median survival time, dose: 128.0 mg/kg/injection, schedule: Q01DX001 (ip), vehicle: Klucel (hydroxypropylcellulose) (HPC), higher = longer survival) was 107 % of control. For the same compound, the T/C (endpoint: median survival time, dose: 128.0 mg/kg/injection, schedule: Q01DX001 (oral), vehicle: Klucel (hydroxypropylcellulose) (HPC), higher = longer survival) was 102 % of control.
